Source: the NIST ThermoML archive (doi:10.1021/je501141e)

Assay: xn = mol fraction of the nth substance listed
Settings: 100 kPa, Liquid; for viscosity: Concentric cylinders viscometry; for speed of sound: Frequency=200 MHz, Sing-around technique in a fixed-path interferometer; for mass density: Vibrating tube method

CC(CC(C)(C)C)CC(C)(C)CC(C)(C)C (stereo not given) [2,2,4,4,6,8,8-heptamethylnonane] + CC(CC(C)(C)C)CC(C)(C)C
Settings	mass density [kg/m3]	speed of sound [m/s]	viscosity [mPa·s]
293.15 K, x1 = 0.0772	749.05	1211.7	1.43
293.15 K, x1 = 0.1584	752.89	1219.4	1.55
293.15 K, x1 = 0.2439	756.76	1226.7	1.7
293.15 K, x1 = 0.334	760.65	1234.8	1.87
293.15 K, x1 = 0.4293	764.68	1242.9	2.08
293.15 K, x1 = 0.5302	768.56	1251.1	2.29
293.15 K, x1 = 0.6371	772.47	1259.6	2.56
293.15 K, x1 = 0.7506	776.56	1268.2	2.86
293.15 K, x1 = 0.8711	780.52	1276.9	3.25
293.15 K, x1 = 1	–	–	3.71
303.15 K, x1 = 0.0772	741.82	1173	1.2
303.15 K, x1 = 0.1584	745.73	1180.9	1.3
303.15 K, x1 = 0.2439	749.65	1188.4	1.42
303.15 K, x1 = 0.334	753.6	1196.6	1.55
303.15 K, x1 = 0.4293	757.69	1205	1.71
303.15 K, x1 = 0.5302	761.62	1213.3	1.88
303.15 K, x1 = 0.6371	765.59	1221.9	2.08
303.15 K, x1 = 0.7506	769.74	1230.8	2.31
303.15 K, x1 = 0.8711	773.76	1239.6	2.59
303.15 K, x1 = 1	–	–	2.93
313.15 K, x1 = 0.0772	734.56	1135	1.02
313.15 K, x1 = 0.1584	738.53	1143	1.1
313.15 K, x1 = 0.2439	742.51	1150.7	1.2
313.15 K, x1 = 0.334	746.52	1159	1.3
313.15 K, x1 = 0.4293	750.67	1167.6	1.43
313.15 K, x1 = 0.5302	754.66	1176.1	1.56
313.15 K, x1 = 0.6371	758.69	1184.8	1.72
313.15 K, x1 = 0.7506	762.9	1193.9	1.9
313.15 K, x1 = 0.8711	766.98	1202.8	2.12
313.15 K, x1 = 1	–	–	2.37
323.15 K, x1 = 0.0772	727.27	1097.7	0.882
323.15 K, x1 = 0.1584	731.3	1105.9	0.947
323.15 K, x1 = 0.2439	735.34	1113.7	1.03
323.15 K, x1 = 0.334	739.41	1122.2	1.11
323.15 K, x1 = 0.4293	743.63	1131	1.21
323.15 K, x1 = 0.5302	747.69	1139.7	1.32
323.15 K, x1 = 0.6371	751.78	1148.5	1.44
323.15 K, x1 = 0.7506	756.05	1157.7	1.59
323.15 K, x1 = 0.8711	760.19	1166.8	1.76
323.15 K, x1 = 1	–	–	1.95
333.15 K, x1 = 0.0772	719.94	1061.1	0.768
333.15 K, x1 = 0.1584	724.04	1069.5	0.822
333.15 K, x1 = 0.2439	728.14	1077.5	0.889
333.15 K, x1 = 0.334	732.28	1086.1	0.956
333.15 K, x1 = 0.4293	736.56	1095.1	1.04
333.15 K, x1 = 0.5302	740.68	1103.9	1.13
333.15 K, x1 = 0.6371	744.84	1112.9	1.23
333.15 K, x1 = 0.7506	749.18	1122.3	1.34
333.15 K, x1 = 0.8711	753.38	1131.6	1.48
333.15 K, x1 = 1	–	–	1.64
343.15 K, x1 = 0.0772	712.57	1025.2	0.676
343.15 K, x1 = 0.1584	716.73	1033.7	0.721
343.15 K, x1 = 0.2439	720.9	1041.9	0.778
343.15 K, x1 = 0.334	725.11	1050.7	0.834
343.15 K, x1 = 0.4293	729.46	1059.8	0.906
343.15 K, x1 = 0.5302	733.65	1068.8	0.975
343.15 K, x1 = 0.6371	737.87	1077.9	1.06
343.15 K, x1 = 0.7506	742.28	1087.5	1.15
343.15 K, x1 = 0.8711	746.55	1096.9	1.26
343.15 K, x1 = 1	–	–	1.39
353.15 K, x1 = 0.0772	705	–	0.6
353.15 K, x1 = 0.1584	709.3	–	0.638
353.15 K, x1 = 0.2439	713.4	–	0.687
353.15 K, x1 = 0.334	717.7	–	0.734
353.15 K, x1 = 0.4293	722.1	–	0.794
353.15 K, x1 = 0.5302	726.4	–	0.852
353.15 K, x1 = 0.6371	730.8	–	0.923
353.15 K, x1 = 0.7506	735.1	–	0.998
353.15 K, x1 = 0.8711	739.5	–	1.09
353.15 K, x1 = 1	–	–	1.19
363.15 K, x1 = 0.0772	697.5	–	0.538
363.15 K, x1 = 0.1584	701.8	–	0.57
363.15 K, x1 = 0.2439	706.1	–	0.613
363.15 K, x1 = 0.334	710.4	–	0.653
363.15 K, x1 = 0.4293	714.8	–	0.704
363.15 K, x1 = 0.5302	719.2	–	0.753
363.15 K, x1 = 0.6371	723.7	–	0.813
363.15 K, x1 = 0.7506	728.1	–	0.88
363.15 K, x1 = 0.8711	732.5	–	0.954
363.15 K, x1 = 1	–	–	1.04
373.15 K, x1 = 0.0772	689.9	–	0.487
373.15 K, x1 = 0.1584	694.2	–	0.515
373.15 K, x1 = 0.2439	698.6	–	0.553
373.15 K, x1 = 0.334	703.1	–	0.586
373.15 K, x1 = 0.4293	707.5	–	0.63
373.15 K, x1 = 0.5302	712.1	–	0.673
373.15 K, x1 = 0.6371	716.7	–	0.723
373.15 K, x1 = 0.7506	721.1	–	0.78
373.15 K, x1 = 0.8711	725.6	–	0.841
373.15 K, x1 = 1	–	–	0.913
